Molecules are shown by their SMILES.

The target of one experiment is T1, PAD4 enzyme (Homo sapiens (Human), UniProt Q9UM07). Put plainly: FP Binding assay. As to conditions: fluorescein labelled probe JPAD-00085, 60 minutes. How it is done: Binding of compounds with PAD4 enzyme was detected by FP assay. PAD4 enzyme was diluted to 1 uM in assay buffer (100 mM HEPES, 50 mM NaCl, 1 mM DTT, 5% Glycerol and 1 mM CHAPS) and added to wells containing various concentration of compounds or DMSO vehicle (1%) in a 384 well black plate. 10 nM of fluorescein labelled probe (JPAD-00085) was added to the plate. Assay plate was incubated for 60 minutes at room temperature before measuring FP reading at FP module (ex 485/2em 535 nm) on Pherastar. IC50 was calculated using XL-fit software model 205. (Ref: Nat Chem Biol. 2015 March; 11 (3): 189-91).
T1 sequence (Q9UM07 whole entry): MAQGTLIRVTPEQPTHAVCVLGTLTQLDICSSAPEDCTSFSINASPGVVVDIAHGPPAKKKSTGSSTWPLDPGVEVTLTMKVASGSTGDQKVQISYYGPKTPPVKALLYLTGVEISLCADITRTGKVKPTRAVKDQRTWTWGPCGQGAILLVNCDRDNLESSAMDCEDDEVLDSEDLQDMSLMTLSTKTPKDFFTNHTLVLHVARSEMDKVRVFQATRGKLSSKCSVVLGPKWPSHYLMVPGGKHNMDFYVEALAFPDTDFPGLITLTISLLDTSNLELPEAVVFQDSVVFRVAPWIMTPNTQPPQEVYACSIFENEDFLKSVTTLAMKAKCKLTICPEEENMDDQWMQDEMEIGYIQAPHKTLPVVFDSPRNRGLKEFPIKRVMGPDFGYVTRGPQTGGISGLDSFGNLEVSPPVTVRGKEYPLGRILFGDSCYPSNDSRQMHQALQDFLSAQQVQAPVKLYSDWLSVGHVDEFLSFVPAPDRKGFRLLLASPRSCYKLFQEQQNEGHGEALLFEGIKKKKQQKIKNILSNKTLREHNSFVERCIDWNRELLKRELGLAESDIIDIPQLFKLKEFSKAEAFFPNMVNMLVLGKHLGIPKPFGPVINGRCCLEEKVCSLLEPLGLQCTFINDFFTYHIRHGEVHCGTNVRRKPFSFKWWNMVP
In turn, `N[C@@H]1CCCN(C(=O)c2cc3c4c(c2)nc(-c2cc5ccccc5n2Cc2ccccc2F)n4CCO3)C1` [Example 14, (R)-(3-aminopiperidin-1-yl)(2-(1-(2-fluorobenzyl)-1H-indol-2-yl)-3,4-dihydro-5-oxa-1,2a-diazaacenaphthylene-7-yl)methanone] came in with an IC50 of at most 1 µM.

Compound `N[C@@H]1CCCN(C(=O)c2cc3c4c(c2)nc(-c2cc5ccccc5n2Cc2ccccn2)n4CCO3)C1` [Example 11, (R)-(3-aminopiperidin-1-yl)(2-(1-(pyridine-2-ylmethyl)-1H-indol-2-yl)-3,4-dihydro-5-oxa-1,2a-diazaacenaphthylen-7-yl)methanone] registered an IC50 of at most 1 µM.

`N[C@@H]1CCCN(C(=O)c2cc3c4c(c2)nc(-c2cc5ccccc5n2Cc2ccncc2)n4CCO3)C1` [Example 10, (R)-(3-aminopiperidin-1-yl)(2-(1-(pyridin-4-ylmethyl)-1H-indol-2-yl)-3,4-dihydro-5-oxa-1,2a-diazaacenaphthylene-7-yl)methanone] had an IC50 of at most 1 µM.

For `CN1CCn2c(-c3cc4ccccc4n3CC3CC3)nc3cc(C(=O)N4CCC[C@@H](N)C4)cc1c32` [Example 72, R-(3-aminopiperidin-1-yl)(2-(1-(cyclopropylmethyl)-1H-indol-2-yl)-6-methyl-5,6-dihydro-4H-imidazo[1,5,4-de]quinoxalin-8-yl)methanone], the IC50 is at most 1 µM.

`CCc1c(-c2nc3cc(C(=O)N4CCC[C@@H](N)C4)cc4c3n2CCO4)sc2ccccc12` [Example 12, (R)-(3-aminopiperidin-1-yl)(2-(3-ethylbenzo[b]thiophen-2-yl)-3,4-dihydro-5-oxa-1,2a-diazaacenaphthylen-7-yl)methanone] came in with an IC50 of at most 1 µM.

Regarding `N[C@@H]1CCCN(C(=O)c2cc3c4c(c2)nc(-c2cc5cc(F)ccc5n2CC2CC2)n4CCN3)C1` [Example 64, R-(3-aminopiperidin-1-yl)(2-(1-(cyclopropylmethyl)-5-fluoro-1H-indol-2-yl)-5,6-dihydro-4H-imidazo[1,5,4-de]quinoxalin-8-yl)methanone], the IC50 is at most 1 µM.

`N[C@@H]1CCCN(C(=O)c2cc3c4c(c2)nc(-c2cc5ccccc5n2CC2CC2)n4CCN3)C1` [Example 63, (R)-(3-aminopiperidin-1-yl)(2-(1-(cyclopropylmethyl)-1H-indol-2-yl)-5,6-dihydro-4H-imidazo[1,5,4-de]quinoxalin-8-yl)methanone] came in with an IC50 of at most 1 µM.

Consider `COc1ccc(Cn2c(-c3nc4cc(C(=O)N5CCC[C@@H](N)C5)cc5c4n3CCO5)cc3ccccc32)cc1` [Example 19, (R)-(3-aminopiperidin-1-yl)(2-(1-(4-methoxybenzyl)-1H-indol-2-yl)-3,4-dihydro-5-oxa-1,2a-diazaacenaphthylen-7-yl)methanone], for which the IC50 was at most 1 µM.

`Cc1cccc2cc(-c3nc4cc(C(=O)N5CCC[C@@H](N)C5)cc5c4n3CCO5)n(CC3CC3)c12` [Example 8, (R)-(3-aminopiperidin-1-yl)(2-(1-(cyclopropylmethyl)-7-methyl-1H-indol-2-yl)-3,4-dihydro-5-oxa-1,2a-diazaacenaphthylen-7-yl)methanone] gave an IC50 of at most 1 µM.

On to `COc1ccc2cc(-c3nc4cc(C(=O)N5CCC[C@@H](N)C5)cc5c4n3CCN5)n(CC3CC3)c2c1` [Example 73, (R)-(3-aminopiperidin-1-yl)(2-(1-(cyclopropylmethyl)-6-methoxy-1H-indol-2-yl)-5,6-dihydro-4H-imidazo[1,5,4-de]quinoxalin-8-yl)methanone], for which the IC50 is at most 1 µM.

On to `N[C@@H]1CCCN(C(=O)c2cc3c4c(c2)nc(-c2cc5cc(F)c(F)cc5n2CC2CC2)n4CCN3)C1` [Example 77, (R)-(3-aminopiperidin-1-yl)(2-(1-(cyclopropylmethyl)-5,6-difluoro-1H-indol-2-yl)-5,6-dihydro-4H-imidazo[1,5,4-de]quinoxalin-8-yl)methanone], for which the IC50 is at most 1 µM.

`NCC1CCCCN1C(=O)c1cc2c3c(c1)nc(-c1cc4ccccc4n1CC1CC1)n3CCO2` (stereo not shown) [Example 4, (2-(aminomethyl)piperidin-1-yl)(2-(1-(cyclopropylmethyl)-1H-indol-2-yl)-3,4-dihydro-5-oxa-1,2a-diazaacenaphthylen-7-yl)methanone] gave an IC50 of at least 10 µM.

For another experiment, the target named is T1, PAD4 enzyme. Put plainly: Ammonia Release Biochemical Assay (citrullination detected via ammonia release). As to conditions: BAEE substrate, 60-min preincubation, read-out: NH3 release. As to the method:
Ammonia Release Biochemical Assay
Citrullination assay was detected via ammonia release. PAD4 enzyme was diluted to 120 nM in assay buffer (100 mM HEPES, 50 mM NaCl, 2 mM DDT, 0.6 mg/mL BSA, pH 7.4) added to wells containing various concentration of compound or DMSO vehicle (1% final) in black 384 well plate. Following a 60-min preincubation at room temperature, the reaction was initiated by the addition of substrate (1.5 mM BAEE in 200 mM HEPES, 50 mM NaCl, 350 uM CaCl2, 2 mM, pH 7.4). The reaction was stopped after 60 min by addition of stop/detection buffer containing 50 mM EDTA, 2.6 mM of o-phthaladehyde and 2.6 mM DTT. Assay was incubated at room temperature for 90 min before measuring fluorescence's (2ex 405/2em 460 nm) on Tecan reader. IC50 was calculated using XL-fit software model 205. (Ref: Nat Chem Biol. 2015 March;11 (3): 189-91).
As to `COc1ccc(Cn2c(-c3nc4cc(C(=O)N5CCC[C@@H](N)C5)cc5c4n3CCO5)cc3cccc(Cl)c32)cc1` [Example 39, (R)-(3-aminopiperidin-1-yl)(2-(7-chloro-1-(4-methoxybenzyl)-1H-indol-2-yl)-3,4-dihydro-5-oxa-1,2a-diazaacenaphthylen-7-yl)methanone], the IC50 was at most 1 µM.

On to `N[C@@H]1CCCN(C(=O)c2cc3c4c(c2)nc(-c2cc5cccc(Cl)c5n2CC2CCC2)n4CCO3)C1` [Example 53, (R)-(3-aminopiperidin-1-yl)(2-(7-chloro-1-(cyclobutylmethyl)-1H-indol-2-yl)-3,4-dihydro-5-oxa-1,2a-diazaacenaphthylen-7-yl)methanone], for which the IC50 was at most 1 µM.

Turning to `N[C@@H]1CCCN(C(=O)c2cc3c4c(c2)nc(-c2cc5ccccc5n2CC2CC2)n4CCO3)C1` [Example 1, (R)-(3-aminopiperidin-1-yl)(2-(1-(cyclopropylmethyl)-1H-indol-2-yl)-3,4-dihydro-5-oxa-1,2a-diazaacenaphthylen-7-yl)methanone], the IC50 was at most 1 µM.

For the compound `N[C@@H]1CCCN(C(=O)c2cc3c4c(c2)nc(-c2cc5ccccc5n2CC2CCC2)n4CCO3)C1` [Example 41, (R)-(3-aminopiperidin-1-yl)(2-(1-(cyclobutylmethyl)-1H-indol-2-yl)-3,4-dihydro-5-oxa-1,2a-diazaacenaphthylen-7-yl)methanone], the IC50 was at most 1 µM.

The record behind these values is US20250302842A1, “HETEROCYCLIC COMPOUNDS USEFUL FOR TREATMENT OF CANCERS” (JUBILANT EPIPAD LLC, priority 2020, published 2025).
